The subject of assay [1] is LX-2. Put plainly: Antifibrotic activity against TGF-beta induced human LX2 cells assessed as inhibition of neuraminidase activity using NA fluorogenic substrate by measuring fluorescence intensity relative to control. It is filed as functional.
Assay [2] relates to LX-2. The experiment in a line: Antifibrotic activity against TGF-beta induced human LX2 cells assessed as inhibition of collagen I expression by measuring fluorescence intensity relative to control. Type of assay: functional.
For assay [3], the system named is LX-2. The experiment in a line: Antifibrotic activity against TGF-beta induced human LX2 cells assessed as inhibition of alpha-SMA expression by measuring fluorescence intensity relative to control. It is filed as functional.
Assay [4] relates to LX-2. The experiment in a line: Antifibrotic activity against TGF-beta induced human LX2 cells assessed as reduction of alpha-SMA expression measured at 10 uM for 24 hrs by measuring fluorescence intensity. Type of assay: functional, cell-based.
Assay [5] has as its system LX-2. Put plainly: Antifibrotic activity against TGF-beta induced human LX2 cells assessed as reduction of collagen I expression measured at 10 uM for 24 hrs by measuring fluorescence intensity. It is filed as functional, cell-based.
Assay [6] deals with LX-2. Put plainly: Antifibrotic activity against TGF-beta induced human LX2 cells assessed as inhibition of neuraminidase activity using NA fluorogenic substrate measured at 10 uM for 24 hrs by measuring fluorescence intensity. It is filed as functional, cell-based.
Assay [7] concerns LX2. The experiment in a line: Inhibition of elastin receptor complex elastin binding protein subunit in human LX2 cells assessed as inhibition of EDP induced ERK phosphorylation treated at 10 uM for 24 hrs by Western blot analysis. Type of assay: cell-based. For orientation: A western blot detects proteins with antibodies after separation by electrophoresis.
The subject of assay [8] is LX2. Put plainly: Inhibition of elastin receptor complex elastin binding protein subunit in human LX2 cells assessed as inhibition of EDP induced PI3K phosphorylation treated at 10 uM for 24 hrs by Western blot analysis. It is filed as cell-based.
In assay [9] the test system is LX-2. The experiment in a line: Antifibrotic activity against TGF-beta induced human LX2 cells assessed as reduction of alpha-SMA expression measured at 10 uM for 24 hrs by measuring fluorescence intensity relative to control. Type of assay: functional. Further details: scale not given: the % may be the effect or the level left.
For assay [10], the system named is LX2. Put plainly: Inhibition of elastin receptor complex elastin binding protein subunit in human LX2 cells assessed as inhibition of EDP induced AMPK phosphorylation treated at 10 uM for 24 hrs by Western blot analysis. It is filed as cell-based.
The test system of assay [11] is LX-2. The experiment in a line: Antifibrotic activity against TGF-beta induced human LX2 cells assessed as reduction of collagen I expression measured at 10 uM for 24 hrs by measuring fluorescence intensity relative to control. It is filed as functional. On the set-up: scale not given: the % may be the effect or the level left.

Results on 22 compounds are retold here after ChEMBL document CHEMBL5380820, “Design and Discovery of Novel Cyclic Peptides as EDPs-EBP Interaction Inhibitors for the Treatment of Liver Fibrosis” (J Med Chem, 2023).

Activity calls are given as the source filed them. The calls are words filed in the database; no cut-off is given here. Where a SMILES comes first, the peptide text is derived from it. Bridges are numbered along the chain shown (N, C = ends). [ ]: non-standard residue; d: D form. Aib = CC(C)(N)C(=O)O

With H-AVGSPSAQDEASPL-NH2, the “inhibition (INH)” value in the assay with LX-2 [1] is reported as 31.2%; in the assay with LX-2 [2], 6.2%; in the assay on LX-2 [3], 3.9%.

With H-VVGSPSAADEASPL-NH2, the “inhibition (INH)” value turned out to be 19.1% with LX-2 [1], 11.8% in the assay with LX-2 [2] and 10.6% in the assay on LX-2 [3]. Also, the result in the assay on LX-2 [4], in the assay with LX-2 [5] and in the assay with LX-2 [6] was inactive.

With H-VVGAPSAQDEASPL-NH2, the “inhibition (INH)” value in the assay on LX-2 [1] amounted to 26.7%; in the assay on LX-2 [2] it was 5.9%. Moreover, the result in the assay on LX-2 [4], with LX-2 [5] and in the assay with LX-2 [6] was inactive. For the same compound, the inhibition entry in the assay on LX-2 [3] was “inactive”.

On to `CC(C)C[C@@H]1NC(=O)[C@@H]2CCCN2C(=O)[C@H](CO)NC(=O)C(C)(C)NC(=O)[C@H](CCC(=O)O)NC(=O)[C@H](CC(=O)O)NC(=O)[C@H](CCC(N)=O)NC(=O)[C@H](C)NC(=O)[C@H](CO)NC(=O)[C@@H]2CCCN2C(=O)[C@H](CO)NC(=O)CNC(=O)[C@H](C(C)C)NC(=O)[C@H](C(C)C)NC1=O` (cyclo(AQDE[Aib]SPLVVGSPS)), for which the “inhibition (INH)” value amounted to 35% in the assay with LX-2 [1] and 5.2% with LX-2 [3]. For the same compound, in the assay on LX-2 [2], the inhibition result is “inactive”.

For `CC(C)C[C@@H]1NC(=O)[C@@H]2CCCN2C(=O)[C@H](CO)NC(=O)[C@H](C)NC(=O)[C@H](CCC(=O)O)NC(=O)[C@H](CC(=O)O)NC(=O)[C@H](CCC(N)=O)NC(=O)C(C)(C)NC(=O)[C@H](CO)NC(=O)[C@@H]2CCCN2C(=O)[C@H](CO)NC(=O)CNC(=O)[C@H](C(C)C)NC(=O)[C@H](C(C)C)NC1=O` (cyclo(ASPLVVGSPS[Aib]QDE)), the inhibition result with LX2 [7], in the assay on LX2 [8] and in the assay with LX2 [10] was “Active” throughout. Besides, the results for the “inhibition (INH)” value with LX-2 [1], in the assay on LX-2 [2] and in the assay on LX-2 [3] were 75%, 26.8% and 24.1%, respectively. Further, the Activity in the assay with LX-2 [9] and in the assay on LX-2 [11] was about 50% throughout.

As for H-VVGSPSAQAEASPL-NH2, the results for the “inhibition (INH)” value in the assay on LX-2 [1], in the assay on LX-2 [2] and in the assay with LX-2 [3] were 33.4%, 5.2% and 7.1%, respectively. Moreover, in the assay on LX-2 [4], the outcome was Active.

H-VAGSPSAQDEASPL-NH2: the “inhibition (INH)” value in the assay on LX-2 [1] is listed as 60%; with LX-2 [2], 28%; in the assay on LX-2 [3] it was 26.4%. Moreover, the result with LX-2 [4] and with LX-2 [5] was Active.

Regarding H-VVGSPSAQDEAAPL-NH2, the entries for the “inhibition (INH)” value with LX-2 [1], in the assay with LX-2 [2] and in the assay on LX-2 [3] were 28.6%, 21.7% and 11.3%, respectively. Further, the result in the assay on LX-2 [4] was Active.

For the compound H-VVGSASAQDEASPL-NH2, the “inhibition (INH)” value is listed as 24.4% in the assay on LX-2 [1], 7.5% in the assay on LX-2 [2] and 3.6% in the assay on LX-2 [3]. Moreover, the result with LX-2 [4] was Active.

`CC(C)[C@@H]1NC(=O)CNC(=O)[C@@H]2CCCN2C(=O)[C@H](CO)NC(=O)[C@H](C)NC(=O)[C@H](CCC(=O)O)NC(=O)[C@H](CC(=O)O)NC(=O)[C@H](CCC(N)=O)NC(=O)[C@H](C)NC(=O)CNC(=O)[C@@H]2CCCN2C(=O)[C@H](CO)NC(=O)CNC(=O)[C@H](C(C)C)NC1=O` (cyclo(AQDEASPGVVGSPG)): the entries for the “inhibition (INH)” value with LX-2 [1], with LX-2 [2] and with LX-2 [3] were 2.6%, 8.5% and 5.3%, respectively.

For H-VVGSPSAQDEASPA-NH2, the “inhibition (INH)” value with LX-2 [1] came to 54.7%; with LX-2 [2], 34.6%; with LX-2 [3], 38.7%. Moreover, the outcome with LX-2 [4] and in the assay on LX-2 [5] was Active.

H-VVGSPSAQDAASPL-NH2: the “inhibition (INH)” value in the assay on LX-2 [1] is recorded as 20.7%; with LX-2 [2] it was 17.6%. Further, the outcome with LX-2 [4] was Active. The inhibition result in the assay with LX-2 [3] was “inactive”.

Consider `CC(C)[C@@H]1NC(=O)CNC(=O)[C@@H]2CCCN2C(=O)[C@H](CO)NC(=O)[C@H](C)NC(=O)[C@H](CCC(=O)O)NC(=O)[C@H](CC(=O)O)NC(=O)[C@H](CCC(N)=O)NC(=O)[C@H](C)NC(=O)[C@H](CC(=O)O)NC(=O)[C@@H]2CCCN2C(=O)[C@H](CO)NC(=O)CNC(=O)[C@H](C(C)C)NC1=O` (cyclo(AQDEASPGVVGSPD)), for which the “inhibition (INH)” value in the assay with LX-2 [1] was 49.5%; with LX-2 [2], 2.2%; in the assay with LX-2 [3] it was 17.6%.

Take `CC(C)C[C@@H]1NC(=O)[C@H](C(C)C)NC(=O)[C@H](CC(C)C)NC(=O)[C@@H]2CCCN2C(=O)[C@H](CO)NC(=O)[C@H](C)NC(=O)[C@H](CCC(=O)O)NC(=O)[C@H](CC(=O)O)NC(=O)[C@H](CCC(N)=O)NC(=O)[C@H](C)NC(=O)[C@H](CO)NC(=O)[C@@H]2CCCN2C(=O)[C@H](CO)NC(=O)CNC1=O` (cyclo(AQDEASPLVLGSPS)): the “inhibition (INH)” value in the assay on LX-2 [1] was found to be 27.4%. Besides, the inhibition result with LX-2 [2] and in the assay with LX-2 [3] was “inactive” in each case.

On to `CC(C)C[C@@H]1NC(=O)[C@@H]2CCCN2C(=O)[C@H](CO)NC(=O)[C@H](C)NC(=O)[C@H](CCC(=O)O)NC(=O)[C@H](CC(=O)O)NC(=O)[C@H](CCC(N)=O)NC(=O)[C@H](C)NC(=O)[C@H](CCCCN)NC(=O)[C@@H]2CCCN2C(=O)[C@H](CO)NC(=O)CNC(=O)[C@H](C(C)C)NC(=O)[C@H](C(C)C)NC1=O` (cyclo(AQDEASPLVVGSPK)), for which the results for the “inhibition (INH)” value in the assay on LX-2 [1], in the assay on LX-2 [2] and in the assay on LX-2 [3] were 30%, 1.7% and 2.8%, respectively.

H-VVASPSAQDEASPL-NH2: the “inhibition (INH)” value was 26.8% in the assay with LX-2 [1] and 6.9% in the assay on LX-2 [2]. Further, the outcome with LX-2 [4], in the assay on LX-2 [5] and in the assay with LX-2 [6] was inactive. Besides, the inhibition result in the assay with LX-2 [3] is “inactive”.

Regarding `CC(C)[C@@H]1NC(=O)CNC(=O)[C@@H]2CCCN2C(=O)[C@H](CO)NC(=O)[C@H](C)NC(=O)[C@H](CCC(=O)O)NC(=O)[C@H](CC(=O)O)NC(=O)[C@H](CCC(N)=O)NC(=O)[C@H](C)NC(=O)[C@H](CS)NC(=O)[C@@H]2CCCN2C(=O)[C@H](CO)NC(=O)CNC(=O)[C@H](C(C)C)NC1=O` (cyclo(AQDEASPGVVGSPC)), the “inhibition (INH)” value in the assay with LX-2 [1] is given as 36.4%; with LX-2 [2], 12.3%; with LX-2 [3], 5.3%.

For `CC(C)C[C@H](NC(=O)[C@@H]1CCCN1C(=O)[C@H](CO)NC(=O)[C@H](C)NC(=O)[C@H](CCC(=O)O)NC(=O)[C@@H]1CC(=O)N[C@@H](C(C)C)C(=O)N[C@@H](C(C)C)C(=O)NCC(=O)N[C@@H](CO)C(=O)N2CCC[C@H]2C(=O)N[C@@H](CO)C(=O)N[C@@H](C)C(=O)N[C@@H](CCC(N)=O)C(=O)N1)C(=O)O` (VVGSPSAQDEASPL-OH; lactam N-9), the inhibition entry with LX2 [7], in the assay on LX2 [8] and in the assay on LX2 [10] was “Active” each time. Further, the “inhibition (INH)” value in the assay on LX-2 [1] was determined as 62.2%; in the assay with LX-2 [2], 36.1%; in the assay with LX-2 [3], 39%. Besides, the Activity in the assay with LX-2 [9] and with LX-2 [11] was about 50% each time.

`CC(C)C[C@@H]1NC(=O)[C@@H]2CCCN2C(=O)[C@H](CO)NC(=O)[C@H](C)NC(=O)[C@H](CCC(=O)O)NC(=O)[C@H](CC(=O)O)NC(=O)[C@H](CCC(N)=O)NC(=O)[C@H](C)NC(=O)[C@H](CO)NC(=O)[C@@H]2CCCN2C(=O)[C@H](CO)NC(=O)CNC(=O)[C@H](C)NC(=O)[C@H](C(C)C)NC1=O` (cyclo(AGSPSAQDEASPLV)): the “inhibition (INH)” value in the assay on LX-2 [1] was determined as 44%; with LX-2 [2], 0.9%; with LX-2 [3] it was 11.5%.

Consider H-VVGSPAAQDEASPL-NH2, for which the “inhibition (INH)” value in the assay on LX-2 [1] is 55.3%; in the assay with LX-2 [2], 34.6%; in the assay on LX-2 [3] it was 33.4%. For the same compound, the result in the assay with LX-2 [5] was Active.

On to `CC(C)C[C@@H]1NC(=O)[C@H](C(C)C)NC(=O)[C@H](C)NC(=O)[C@@H]2CCCN2C(=O)[C@H](CO)NC(=O)[C@H](C)NC(=O)[C@H](CCC(=O)O)NC(=O)[C@H](CC(=O)O)NC(=O)[C@H](CCC(N)=O)NC(=O)[C@H](C)NC(=O)[C@H](CO)NC(=O)[C@@H]2CCCN2C(=O)[C@H](CO)NC(=O)CNC1=O` (cyclo(AQDEASPAVLGSPS)), for which the figures for the “inhibition (INH)” value with LX-2 [1], in the assay with LX-2 [2] and with LX-2 [3] were 42.2%, 1.6% and 20.7%, respectively.

As for `CC(C)C[C@@H]1NC(=O)[C@@H]2CCCN2C(=O)[C@H](CO)NC(=O)[C@H](C)NC(=O)[C@H](CCC(=O)O)NC(=O)[C@H](CC(=O)O)NC(=O)[C@H](CCC(N)=O)NC(=O)[C@H](C)NC(=O)[C@H]([C@@H](C)O)NC(=O)[C@@H]2CCCN2C(=O)[C@H](CO)NC(=O)CNC(=O)[C@H](C(C)C)NC(=O)[C@H](C(C)C)NC1=O` (cyclo(AQDEASPLVVGSPT)), the “inhibition (INH)” value in the assay with LX-2 [1] stood at 27%; in the assay on LX-2 [2], 13.9%; with LX-2 [3], 9.9%.
